From patent US20100047907A1, “METHODS OF TRANSPORTING EPITHELIAL CELL MONOLAYERS” (Absorption System Group LLC, priority 2008, published 2010)
Values belong to the compound of their own block, whether it stands above or below them.

Experiments:
Caco-2 cell monolayers = test: Sodium butyrate supplementation of medium of Caco-2 monolayers, 7-day culture procedure, simulated transport; assay type: cell-based, human
Procedure: Caco-2 cells were used to assess whether cells grown using the 7-day culture procure were likely to yield intact cell monolayers following shipment. To shorten the period required for cell monolayer formation the seeding density for each Transwell® insert was increased to 240,000 cells per cm^2 (rather than 60,000 cells/cm^2). Once plated, the cells were incubated overnight at 37° C. with 0.5 mL of medium (90% Dulbecco's Modified Eagle Medium supplemented with 10% fetal bovine serum) in the apical chamber and 1.5 mL of medium in the basolateral chamber to allow for attachment to the Transwell®. Adherent cells were provided with fresh cell culture medium for the next two days. The cells were then left on a laboratory bench, at room temperature, overnight to simulate transport conditions. In order to simulate receipt of transported cells, the next day the Transwell® inserts were removed from tissue culture plates containing 0.75% agarose medium and moved to a new plate containing fresh tissue culture medium. The cell monolayers were then incubated for 3 or 6 days under normal growth conditions before they were tested for membrane integrity and permeability. […]

in vitro = settings: human, Caco-2, pH 7.4, Passive diffusion
P-glycoprotein (PGP) [1] = target: T1, P-glycoprotein (PGP) (Homo sapiens, UniProt P08183); test: Bidirectional digoxin Pgp transport across C2BBe1 monolayers; settings: Caco-2, pH 7.4
T1 sequence (P08183 whole entry): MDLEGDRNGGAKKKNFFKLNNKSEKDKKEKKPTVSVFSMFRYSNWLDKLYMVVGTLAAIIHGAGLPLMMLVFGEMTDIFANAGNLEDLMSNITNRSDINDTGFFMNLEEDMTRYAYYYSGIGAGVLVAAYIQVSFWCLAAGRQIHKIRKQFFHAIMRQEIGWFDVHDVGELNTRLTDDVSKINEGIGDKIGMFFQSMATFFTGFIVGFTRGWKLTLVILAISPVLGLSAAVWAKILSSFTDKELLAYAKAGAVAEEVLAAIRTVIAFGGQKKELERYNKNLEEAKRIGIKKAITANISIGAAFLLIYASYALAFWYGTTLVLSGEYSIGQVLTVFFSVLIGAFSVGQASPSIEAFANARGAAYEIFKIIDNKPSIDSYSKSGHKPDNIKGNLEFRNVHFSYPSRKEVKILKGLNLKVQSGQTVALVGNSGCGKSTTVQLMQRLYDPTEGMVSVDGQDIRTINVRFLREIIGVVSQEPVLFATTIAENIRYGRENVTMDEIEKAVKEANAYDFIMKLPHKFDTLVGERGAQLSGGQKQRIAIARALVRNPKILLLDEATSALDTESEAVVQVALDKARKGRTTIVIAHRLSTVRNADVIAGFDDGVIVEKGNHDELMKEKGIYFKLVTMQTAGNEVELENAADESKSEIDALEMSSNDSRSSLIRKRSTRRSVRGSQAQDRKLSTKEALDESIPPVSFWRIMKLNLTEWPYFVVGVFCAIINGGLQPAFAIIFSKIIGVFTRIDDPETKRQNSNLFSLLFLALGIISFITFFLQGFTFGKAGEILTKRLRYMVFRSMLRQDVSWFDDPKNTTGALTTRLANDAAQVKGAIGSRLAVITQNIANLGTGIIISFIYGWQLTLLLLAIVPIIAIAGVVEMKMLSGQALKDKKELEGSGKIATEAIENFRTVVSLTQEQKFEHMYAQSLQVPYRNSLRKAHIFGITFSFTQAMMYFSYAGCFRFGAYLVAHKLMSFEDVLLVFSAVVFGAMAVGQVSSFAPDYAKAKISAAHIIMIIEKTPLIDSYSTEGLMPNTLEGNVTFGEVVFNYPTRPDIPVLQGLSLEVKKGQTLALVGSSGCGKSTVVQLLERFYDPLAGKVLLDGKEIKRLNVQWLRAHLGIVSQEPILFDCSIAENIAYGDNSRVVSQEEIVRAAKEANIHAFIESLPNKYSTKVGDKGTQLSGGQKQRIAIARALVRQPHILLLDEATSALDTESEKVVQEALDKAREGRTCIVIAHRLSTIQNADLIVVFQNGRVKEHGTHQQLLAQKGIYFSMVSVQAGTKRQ

PGP [2] = target: T2, PGP (Homo sapiens, UniProt P08183); test: Bidirectional digoxin Pgp transport across Caco-2 monolayers; settings: Caco-2, pH 7.4
T2 sequence (P08183 whole entry): as above

P-gp [3] = test: Bidirectional digoxin Pgp transport across MDCK monolayers; settings: dog, MDCK-MDR1, pH 7.4, Pgp transport
P-glycoprotein (PGP) [4] = target: T1, P-glycoprotein (PGP); test: in vitro; settings: Caco-2, pH 7.4, Pgp transport
PGP [5] = target: T2, PGP; test: in vitro; settings: Caco-2, pH 7.4, Pgp transport
P-gp (PGP) = P-gp (PGP) (Homo sapiens, UniProt P08183); test: in vitro; settings: Caco-2, pH 7.4, Pgp transport, Papp B->A
P-gp (PGP), sequence (P08183 whole entry): as above

P-gp [6] = test: Bidirectional digoxin Pgp transport across MDR-MDCK monolayers; settings: human, MDCK-MDR1, pH 7.4, Pgp transport
[7] = test system: human P-glycoprotein (PGP); test: as above; settings: dog, MDCK-MDR1, pH 7.4, Pgp transport; for Papp A→B at 2 h, 10 µM / Papp B→A at 2 h, 10 µM: assayed day 12
[8] = Table 9 control, assayed day 10
[9] = Table 9 shipped, 0.75% agarose media basolateral only, assayed day 10
[10] = Table 12 control, 7 d in culture
[11] = Table 12 shipped overnight by air, 0.75% agarose medium basolateral only, 9 d in culture
[12] = Table 10 control, assayed day 12
[13] = Table 13 MDR1-MDCK control, 7 d in culture
[14] = Table 13 MDR1-MDCK shipped overnight by air, 0.75% agarose medium basolateral only, 10 d in culture
[15] = air cargo shipped (three days in transit), 0.75% agarose media basolateral only, assayed day 12
[16] = Table 5 control, not shipped, assayed 7 D
[17] = Table 6 shipped at 5 D, 0.5% agarose medium basolateral only, assayed 10 D
[18] = Table 7 shipped at day 6, 0.5% agarose medium basolateral only
[19] = shipped, 0.5% agarose medium apical only, Table 5 lower block c1, assayed 7 D
[20] = shipped, 0.5% agarose medium apical only, Table 5 lower block c2, assayed 7 D
[21] = shipped, 0.5% agarose medium apical only, Table 5 upper block c1, assayed 7 D
[22] = shipped, 0.5% agarose medium apical only, Table 5 upper block c2, assayed 7 D
[23] = shipped, 0.5% agarose medium apical only, Table 5 upper block c4, assayed 7 D
[24] = shipped, 0.5% agarose medium basolateral only, assayed 7 D

Compound: CCCC(=O)[O-].[Na+] [sodium butyrate]
effect on cell monolayer integrity and permeability following transport (Caco-2 cell monolayers; 4 mM in medium for three days prior to simulated transport, not following transport): adversely affects monolayer integrity and permeability following transport | effect on cell monolayer integrity or permeability (Caco-2 cell monolayers; added to tissue culture medium following simulated transport, not prior to transport): does not disrupt cell monolayer integrity or permeability

Papp A→B at 2 h (in vitro): 14.2 ×10⁻⁶ cm/s
Compound: CC(C)NCC(O)COc1cccc2[nH]ccc12 (stereo not shown) [Pindolol, pindolol]

Compound: C[C@H]1O[C@@H](O[C@H]2[C@@H](O)C[C@H](O[C@H]3[C@@H](O)C[C@H](O[C@H]4CC[C@@]5(C)[C@H](CC[C@@H]6[C@@H]5C[C@@H](O)[C@]5(C)[C@@H](C7=CC(=O)OC7)CC[C@]65O)C4)O[C@@H]3C)O[C@@H]2C)C[C@H](O)[C@@H]1O [Digoxin, digoxin]
Papp B→A at 2 h, 10 µM (P-glycoprotein (PGP) [1]): 5.67 ×10⁻⁶ cm/s | Papp A→B at 120 min, 10 µM (PGP [2]): 0.66 ×10⁻⁶ cm/s | Papp A→B at 2 h, 10 µM (P-gp [3]; [8]): 0.2 ×10⁻⁶ cm/s | Papp A→B at 2 h, 10 µM (P-gp [3]; [9]): 0.04 ×10⁻⁶ cm/s | Papp A→B at 2 h, 10 µM (P-gp [3]; [10]): 0.12 ×10⁻⁶ cm/s | Papp A→B at 2 h, 10 µM (P-gp [3]; [11]): 0.16 ×10⁻⁶ cm/s | Papp B→A at 2 h, 10 µM (P-gp [3]; [8]): 0.94 ×10⁻⁶ cm/s | Papp B→A at 2 h, 10 µM (P-gp [3]; [9]): 3.83 ×10⁻⁶ cm/s | Papp B→A at 2 h, 10 µM (P-gp [3]; [10]): 6.92 ×10⁻⁶ cm/s | Papp B→A at 2 h, 10 µM (P-gp [3]; [11]): 7.44 ×10⁻⁶ cm/s | Papp B→A at 2 h, 10 µM (P-glycoprotein (PGP) [4]): 6.86 ×10⁻⁶ cm/s | Papp A→B at 2 h, 10 µM (PGP [5]; Papp A->B): 1.13 ×10⁻⁶ cm/s | Papp B→A at 120 min, 10 µM (PGP [5]; Papp B->A): 21.6 ×10⁻⁶ cm/s | Papp B→A at 2 h, 10 µM (PGP [5]; Papp B->A): 15.2 ×10⁻⁶ cm/s | Papp B→A at 120 min, 10 µM (P-gp (PGP)): 21.9 ×10⁻⁶ cm/s | Papp A→B at 2 h, 10 µM (P-gp [6]; [12]): 0.04 ×10⁻⁶ cm/s | Papp A→B at 2 h, 10 µM (P-gp [6]; [13]): 0.02 ×10⁻⁶ cm/s | Papp A→B at 2 h, 10 µM (P-gp [6]; [14]): 0.09 ×10⁻⁶ cm/s | Papp A→B at 2 h, 10 µM (P-gp [6]; [15]): 0.07 ×10⁻⁶ cm/s | Papp B→A at 2 h, 10 µM (P-gp [6]; [12]): 10.9 ×10⁻⁶ cm/s | Papp B→A at 2 h, 10 µM (P-gp [6]; [13]): 12.6 ×10⁻⁶ cm/s | Papp B→A at 2 h, 10 µM (P-gp [6]; [14]): 20.1 ×10⁻⁶ cm/s | Papp B→A at 2 h, 10 µM (P-gp [6]; [15]): 13.1 ×10⁻⁶ cm/s | Papp A→B at 120 min, 10 µM [7, 16]: 0.1 ×10⁻⁶ cm/s | Papp A→B at 120 min, 10 µM ([7]; Table 6 control, assayed 10 D): 0.15 ×10⁻⁶ cm/s | Papp A→B at 120 min, 10 µM [7, 17]: 0.21 ×10⁻⁶ cm/s | Papp A→B at 2 h, 10 µM ([7]; Table 7 control): 0.15 ×10⁻⁶ cm/s | Papp A→B at 2 h, 10 µM [7, 18]: 0.09 ×10⁻⁶ cm/s | Papp A→B at 120 min, 10 µM [7, 19]: 0.18 ×10⁻⁶ cm/s | Papp A→B at 120 min, 10 µM [7, 20]: 0.09 ×10⁻⁶ cm/s | Papp A→B at 120 min, 10 µM [7, 21]: 0.11 ×10⁻⁶ cm/s | Papp A→B at 120 min, 10 µM [7, 22]: 0.06 ×10⁻⁶ cm/s | Papp A→B at 120 min, 10 µM [7, 23]: 0.07 ×10⁻⁶ cm/s | Papp A→B at 120 min, 10 µM [7, 24]: 0.06 ×10⁻⁶ cm/s | Papp B→A at 120 min, 10 µM [7, 16]: 6.7 ×10⁻⁶ cm/s | Papp B→A at 120 min, 10 µM ([7]; Table 6 control, assayed 10 D): 10.8 ×10⁻⁶ cm/s | Papp B→A at 120 min, 10 µM [7, 17]: 9.14 ×10⁻⁶ cm/s | Papp B→A at 2 h, 10 µM ([7]; Table 7 control): 6.37 ×10⁻⁶ cm/s | Papp B→A at 2 h, 10 µM [7, 18]: 6.4 ×10⁻⁶ cm/s | Papp B→A at 120 min, 10 µM [7, 19]: 7.05 ×10⁻⁶ cm/s | Papp B→A at 120 min, 10 µM [7, 20]: 8.27 ×10⁻⁶ cm/s | Papp B→A at 120 min, 10 µM [7, 21]: 5.24 ×10⁻⁶ cm/s | Papp B→A at 120 min, 10 µM [7, 22]: 6.19 ×10⁻⁶ cm/s | Papp B→A at 120 min, 10 µM ([7]; shipped, 0.5% agarose medium apical only, Table 5 upper block c3, assayed 7 D): 4.65 ×10⁻⁶ cm/s | Papp B→A at 120 min, 10 µM [7, 23]: 6.39 ×10⁻⁶ cm/s | Papp B→A at 120 min, 10 µM [7, 24]: 6.09 ×10⁻⁶ cm/s
